Experimental data published in patent US10800807B2, “TGR5 modulators and methods of use thereof” (Intercept Pharmaceuticals, Inc., priority 2015, dated 2020).
Substitutions are numbered along the chain they refer to. In brackets after ≈: the same amount, converted by molar mass. Where two headings read alike, the source gives them in different places.

Key:
[1] = Water solubility; format: physicochemical; details: simulated gastric fluid, thermodynamic from solid, 0.1 M HCl, pH 1.00, 25° C., read-out: Ws
Description: BA were suspended in 100 ml of 0.1 M HCl, pH 1.00, and the saturated solutions were transferred to a thermostat-equipped water bath maintained at 25° C. After incubation for 1 week, the solutions were filtered on a Millipore filter ([…]), and the concentration of BA was measured by HPLC-ESMS/MS as reported below.

[2] = Critical micellar concentration (surface tension / dye solubilization); format: physicochemical; details: BA sodium salts in 0.1 M NaCl, 25° C.
Description: In the first method, the surface tension was performed by maximum bubble-pressure method using a Sensadyne 6000 tensiometer (Chem-Dyne Research Corp., Milwaukee, Wis.). The surface tension of aqueous solutions at various concentrations (range 0.1-100 mM) of the BA sodium salts in 0.1 M NaCl was measured at 25° C. The surface tension values were plotted against the logarithm of the bile salt concentration; the regression lines corresponding to the two parts of the curve (monomeric and micellar phases) were calculated using the method of least squares. The critical micellar concentration (CMC) value (mM) was obtained by the intersection of the two lines.
The second method is based on the fact that some dyes, specifically Orange OT ([…]), are almost insoluble in water but dissolve in solutions with micellar aggregates that incorporate them; thus, the intensity of color of the solution increases with bile salt concentration (after CMC achievement). The amount of dye solubilized in relation to bile salt concentration was determined spectrophotometrically.
For each bile acid, various solution at different concentrations, between 50 mM and 0.1 mM with appropriate dilutions, were incubated under stirring at room temperature for 3 days with an excess of Orange OT. Then all the solutions were centrifuged and filtered through a 0.22 μm Millipore fiiter (Millipore Corp., Bedford, Mass.).

[3] = Lipophilicity, 1-octanol/water partition coefficient (shake-flask); format: physicochemical; details: pH 8.00, ionized BA
Description: The experiments were carried out on 1 mM initial bile salt solution buffered at pH 8.00 with 0.1 M potassium phosphate buffer to ensure complete ionization of the BA. BA concentration in the water phase before and after partition in 1-octanol was measured by HPLC-ESMS/MS as reported below.

[4] = molecular target: bovine serum albumin (Bos taurus, UniProt P02769); assay: Albumin binding by equilibrium dialysis; format: in vitro ADME; details: 5% bovine serum albumin saline solution, 25° C.
Sequence of bovine serum albumin (P02769 25-607): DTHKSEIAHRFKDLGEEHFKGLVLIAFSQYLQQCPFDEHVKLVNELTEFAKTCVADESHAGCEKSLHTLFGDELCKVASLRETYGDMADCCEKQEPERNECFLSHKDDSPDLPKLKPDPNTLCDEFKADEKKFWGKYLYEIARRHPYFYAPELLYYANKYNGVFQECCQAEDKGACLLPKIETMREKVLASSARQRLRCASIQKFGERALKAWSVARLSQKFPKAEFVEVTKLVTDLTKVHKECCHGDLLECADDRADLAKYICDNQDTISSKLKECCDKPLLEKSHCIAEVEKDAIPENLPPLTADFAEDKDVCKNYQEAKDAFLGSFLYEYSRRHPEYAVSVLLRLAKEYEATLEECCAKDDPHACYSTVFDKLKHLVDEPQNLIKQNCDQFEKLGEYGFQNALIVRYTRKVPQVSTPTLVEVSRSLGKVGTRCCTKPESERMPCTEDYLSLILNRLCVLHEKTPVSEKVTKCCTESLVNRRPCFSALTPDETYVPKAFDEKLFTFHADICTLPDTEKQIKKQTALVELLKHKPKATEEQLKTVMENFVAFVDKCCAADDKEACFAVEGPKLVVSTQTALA
Description: BA was dissolved at a concentration of […] in 5% bovine serum albumin saline solution and left to stand for 24 hours at 25° C. Two milliliters of this solution was dialyzed in cellulose sacs with a molecular weight cut-off of 12-14 kDa (Spectra/Por; Spectrum Medical Industries Inc., Rancho Dominguez, Calif.) against 25 ml of saline solution. The system was equilibrated by mechanical shaking for 72 hours at 25° C. BA concentrations in the starting solution and in the dialyzed solution were determined by HPLC-ES-MS/MS as reported below.

[5] = molecular target: T1, mTGR5 (Mus musculus, UniProt Q80SS6); assay: TGR5 activity: cAMP in mTGR5 CHO-Pi10 clone 4 cells; format: cell-based; details: for Emax: 0.5 h, read-out: (mTGR5 CHO) Efficacy
T1 construct: expressed in transfected cells; host or cells: CHO-Pi10 clone 4
T1 sequence (Q80SS6 1-329): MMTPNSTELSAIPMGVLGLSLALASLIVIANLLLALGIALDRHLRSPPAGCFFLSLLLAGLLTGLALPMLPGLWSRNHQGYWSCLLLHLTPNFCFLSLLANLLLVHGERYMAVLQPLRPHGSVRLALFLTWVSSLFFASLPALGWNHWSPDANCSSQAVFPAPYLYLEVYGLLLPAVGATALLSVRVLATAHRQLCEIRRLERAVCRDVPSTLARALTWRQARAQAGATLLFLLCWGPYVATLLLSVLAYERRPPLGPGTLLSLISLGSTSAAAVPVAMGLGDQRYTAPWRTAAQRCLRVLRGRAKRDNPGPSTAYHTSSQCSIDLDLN

[6] = molecular target: T2, human glutathione transferase-tagged FXR-LBD (Homo sapiens, UniProt Q96RI1); assay: FXR AlphaScreen coactivator recruitment assay (human); format: biochemical; set-up: Emax: dose or concentration left out as unconfirmed; details: for EC50: human FXR-LBD, AlphaScreen, read-out: hFXR EC50; for Emax: read-out: hFXR Efficacy;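 for hFXR Efficacy: CDCA at 50 µM taken as 100%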
T2 construct: human glutathione transferase-tagged FXR-LBD (Life Technologies, USA); purchased Life Technologies, USA
T2 sequence (Q96RI1 262-486 limits assumed): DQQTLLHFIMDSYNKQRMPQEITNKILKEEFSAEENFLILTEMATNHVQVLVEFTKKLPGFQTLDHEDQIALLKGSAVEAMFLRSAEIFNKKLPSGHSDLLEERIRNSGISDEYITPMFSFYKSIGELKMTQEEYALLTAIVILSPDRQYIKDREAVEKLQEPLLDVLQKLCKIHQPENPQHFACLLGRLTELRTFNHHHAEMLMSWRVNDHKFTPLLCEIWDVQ

[7] = molecular target: T3, mouse glutathione transferase-tagged FXR-LBD (Mus musculus, UniProt Q60641); assay: FXR AlphaScreen coactivator recruitment assay (mouse); format: biochemical; details: for EC50: read-out: (mFXR) EC50; for Emax: read-out: (mFXR) Efficacy
T3 construct: mouse glutathione transferase-tagged FXR-LBD (generated in-house); made in house
T3 sequence (Q60641 264-488 limits assumed): T2 sequence (Q96RI1 262-486 limits assumed) with H7D, F8Y, N46S, V50I, S95A, S98A, N107K, I125V, I174M, H175Y

[8] = pKa
[9] = Critical micellar concentration (surface tension / dye solubilization); format: physicochemical
[10] = molecular target: T4, TGR5 (Homo sapiens, UniProt Q8TDU6); assay: TGR5 activity: intracellular cAMP levels, NCI-H716 cells (HTR-FRET); format: cell-based; set-up: endogenous in cells; host or cells: NCI-H716; details: for Emax: read-out: TGR5 (NCI-H716) Efficacy; for EC50: cAMP
T4 sequence (Q8TDU6 1-330): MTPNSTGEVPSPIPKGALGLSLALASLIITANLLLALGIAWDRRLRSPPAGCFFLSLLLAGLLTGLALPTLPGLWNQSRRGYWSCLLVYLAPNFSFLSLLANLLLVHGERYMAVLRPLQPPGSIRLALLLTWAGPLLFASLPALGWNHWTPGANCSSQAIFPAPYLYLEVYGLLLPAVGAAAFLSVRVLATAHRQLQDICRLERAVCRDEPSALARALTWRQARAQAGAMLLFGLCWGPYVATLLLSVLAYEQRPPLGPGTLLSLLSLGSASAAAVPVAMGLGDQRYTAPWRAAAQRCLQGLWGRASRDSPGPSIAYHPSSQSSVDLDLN
Description: Activation of TGR5 was assessed by measuring the level of cAMP using an HTR-FRET assay. Thus, NCI-H716 cells were cultured on 96-well plates coated with Matrigel (Corning, USA) (0.75 mg/ml) in DMEM supplemented with 10% FCS, 100 units/ml penicillin, and 100 μg/ml streptomycin sulphate. […] The level of intracellular cAMP was determined with Lance kit. Z′ factor was used to validate assays.

[11] = molecular target: T4, TGR5; assay: TGR5 activity: cAMP in hTGR5 CHO-k1 cells; format: cell-based; set-up: expressed in transfected cells; host or cells: CHO-k1; details: for Emax: 0.5 h, read-out: hTGR5 CHO Efficacy; for EC50: cAMP
[12] = mTGR5 CHO cells, value in parentheses
[13] = mouse FXR-LBD, value in parentheses
[14] = 1 h, NCI-H716 cells, Ref. LCA 100% at 10 μM
[15] = hTGR5 CHO cells, Ref. LCA 100% at 10 μM

Row | SMILES | solubility thermodynamic at 1 week [1] | CMC [2] | LogPA− [3] | Albumin binding (%) [4] | Emax [5, 12] | EC50 [5, 12] | EC50 [6] | Emax [6] | EC50 [7, 13] | Emax [7, 13] | pKa [8] | CMpH [9] | Emax [10, 14] | EC50 ([10]; NCI-H716 cells) | Emax [11, 15] | EC50 ([11]; hTGR5 CHO cells) | other results
1 | CC[C@H]1[C@@H](O)C2C3CC[C@H]([C@H](C)C(F)(F)C(=O)O)[C@@]3(C)CCC2[C@@]2(C)CC[C@@H](O)C[C@@H]12 (stereo partly drawn) (hydrate or solvate) |  |  |  |  |  |  |  |  |  |  |  |  |  |  |  |  | melting point: 254 to 256 °C
2 | CC[C@H]1[C@@H](O)C2C3CC[C@H]([C@H](C)CCc4noc(=O)[nH]4)[C@@]3(C)[C@@H](O)CC2[C@@]2(C)CC[C@@H](O)C[C@@H]12 (stereo partly drawn) [Compound 11, 3α,7α,12α-trihydroxy-6α-ethyl-24-nor-5β-23([1,2,4]-oxadiazole-3-one-5yl)-cholane] | 392 µM (≈ 187 µg/mL) | 5 mM | 1.6 | 84% | 108% | 1400 nM | 1000 nM | 140% | 7700 nM | 100% | 5.94 | 7.0 | 105% | 2000 nM | 96 ± 19% | 2700 ± 1800 nM | 
3 | CC[C@H]1[C@@H](O)C2C3CC[C@H]([C@H](C)CCc4nn[nH]n4)[C@@]3(C)[C@@H](O)CC2[C@@]2(C)CC[C@@H](O)C[C@@H]12 (stereo partly drawn) [Compound 12, 3α,7α,12α-Trihydroxy-6α-ethyl-23-(tetrazol-5-yl)-24-nor-5β-cholane] | 517 µM (≈ 238 µg/mL) | 5 mM | 1.5 | 83% | 105% | 840 nM | 1700 ± 600 nM | 125 ± 15% | 12700 nM | 93% | 5.59 | 6.6 | 104% | 4000 nM | 101 ± 1.4% | 710 ± 80 nM | 
4 | CC[C@@H]1C2C[C@H](O)CC[C@]2(C)C2CC[C@@]3(C)C(CC[C@@H]3[C@H](C)Cc3nc(=O)o[nH]3)C2[C@@H]1O (stereo partly drawn) [Compound 14] | 2020 µM (≈ 904 µg/mL) | 10 mM | 1.9 | 99% | 111% | 900 nM | 75 ± 10 nM | 165 ± 15% | 460 nM | 264% | 5 | 5.0 | 110 ± 2% | 1600 ± 300 nM | 107 ± 1% | 480 ± 300 nM | 
5 | CC[C@H]1[C@@H](O)[C@@H]2[C@H](CC[C@]3(C)[C@@H]([C@H](C)CCc4nn[nH]n4)[C@@H](O)C[C@@H]23)[C@@]2(C)CC[C@@H](O)C[C@@H]12 [Compound 17, 3α,7α,16β-Trihydroxy-6α-ethyl-23-(tetrazol-5-yl)-24-nor-5β-cholane] | 5 µM (≈ 2.3 µg/mL) | 11 mM | 2.0 | 90% | 101% | 800 nM | 450 ± 50 nM | 138 ± 9% | 2300 nM | 171% | 5.71 | 9.0 | 119 ± 2% | 1200 ± 100 nM | 103 ± 2% | 100 ± 40 nM | 
6 | CC[C@H]1[C@@H](O)C2C3CC[C@H]([C@H](C)CC(=O)NCCO)[C@@]3(C)CCC2[C@@]2(C)CC[C@@H](O)C[C@@H]12 (stereo partly drawn) [Compound 19, 3α,7α-Dihydroxy-6α-ethyl-N-(2-hydroxyethyl)-24-nor-5β-cholan-23-amide] | 2150 µM (≈ 967 µg/mL) | 5 mM | 1.0 | 51% |  | 80 nM | 3000 ± 1000 nM | 137 ± 2% | 10000 nM |  | 14.3 | 1.3 |  | 160 ± 10 nM |  | 20 ± 8 nM | Emax ([5]; CHO): 106%; Emax [7]: 122%; Emax ([10]; NCI-H716, 1 h): 128 ± 1%; Emax ([11]; CHO): 105 ± 2%
